The text below walks through data of ChEMBL document CHEMBL3580632, “Lumiquinone A, an α-Aminomalonate-Derived Aminobenzoquinone from Photorhabdus luminescens” (2015).

The source made the active and inactive calls. The calls are words filed in the database; no cut-off is given here.

One assay relates to Saccharomyces cerevisiae. Briefly: Antimicrobial activity against Saccharomyces cerevisiae assessed as inhibition of microbial growth at 50 ug/disk incubated at 30 degC for 24 hrs by paper disk method. It is filed as functional.
The next assay relates to Escherichia coli. Description: Antimicrobial activity against Escherichia coli Nissle1917 assessed as inhibition of microbial growth incubated at 30 degC for 24 hrs by paper disk method. It is filed as functional, organism-based.
A further assay has as its system Bacillus subtilis. Briefly: Antimicrobial activity against Bacillus subtilis NCIB3610 assessed as inhibition of microbial growth at 50 ug/disk incubated at 30 degC for 24 hrs by paper disk method. It is filed as functional. The following applies: NCIB3610, 24 h, read-out: IZ.

As for `CC(C)c1c(O)cc(/C=C/c2ccccc2)cc1O`, the “growth inhibition (GI)” value in the assay with Saccharomyces cerevisiae was “Active”. The “growth inhibition (GI)” value with Escherichia coli is “inactive”.

In the case of `CC(C)C1=C(O)C(=O)C(/C=C/c2ccccc2)=C(N)C1=O`, in the assay with Escherichia coli, the “growth inhibition (GI)” value was “inactive”. For the same compound, the zone of inhibition at 50 µg/disc with Bacillus subtilis came out at 4 mm.
